Laboratory results taken from US20260166016A1, “GPR139 RECEPTOR AGONIST, PREPARATION METHOD THEREFOR, AND APPLICATION THEREOF” (NEUBO APPTECH CO., LTD., priority 2022, published 2026).

target: T1, GPR139 (Homo sapiens, UniProt Q6DWJ6); test: GPR139 FLIPR cell calcium signal detection in GPR139-transfected HEK293 cells; assay type: cell-based; details: HEK293 cells transfected with GPR139, read-out: EC50 values of compounds for GPR139
T1 construct: expressed in transfected cells; host or cells: HEK293
T1 sequence (Q6DWJ6 1-353): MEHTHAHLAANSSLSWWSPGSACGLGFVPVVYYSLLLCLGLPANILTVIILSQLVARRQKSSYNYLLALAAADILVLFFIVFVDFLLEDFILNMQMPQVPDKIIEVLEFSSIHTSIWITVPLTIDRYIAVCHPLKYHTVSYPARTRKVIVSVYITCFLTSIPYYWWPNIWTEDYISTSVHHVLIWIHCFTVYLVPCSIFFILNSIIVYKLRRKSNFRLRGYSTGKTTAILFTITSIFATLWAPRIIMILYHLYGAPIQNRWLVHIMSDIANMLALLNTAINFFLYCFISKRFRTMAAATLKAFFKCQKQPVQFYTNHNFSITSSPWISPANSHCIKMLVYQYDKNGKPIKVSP
Procedure: HEK293 cells were grown in a 10 cm culture dish containing DMEM complete medium (containing glutamine, sodium pyruvate, penicillin/streptomycin, 10% fetal bovine serum) and incubated at 37° C. in a 5% CO2 incubator until 90% confluency. Then subculture twice a week at a ratio of 1:5. During cell passaging, the culture medium was first completely removed, washed once with 4 mL of DPBS, and then 3 mL of trypsin digestion solution was added and mixed well. When cell dissociation was observed, the trypsin solution was aspirated and 5 mL of complete DMEM medium was added. The cells were dispersed by pipetting, and 1 mL of cell suspension was added to each of five new 10 cm culture dishes. Then, 7 mL of complete DMEM medium was supplemented to each dish. After mixing, the cells were cultured at 37° C. in a 5% CO2 incubator.
On the transfection day, cells were digested and seeded into one 10 cm culture dish at appropriate density. 6 mL of DMEM/F12 medium (containing glutamine, sodium pyruvate, HEPES, and fetal bovine serum) was added, and the cells were cultured for 5 hours at 37° C. in 5% CO2. A 50 mL sterile centrifuge tube (Tube A) was taken, and 1 mL of serum-free DMEM/F12 medium (containing glutamine, sodium pyruvate, and HEPES) was added, followed by 10 μg of GPR139 DNA. The mixture was mixed well. Another 50 mL sterile centrifuge tube (Tube B) was taken, and 1 mL of serum-free DMEM medium (containing glutamine, sodium pyruvate, and HEPES) was added, followed by 60 μL of Fugene HD transfection reagent. The mixture was mixed well. 1 mL of Fugene HD transfection reagent from Tube B was transferred to Tube A, mixed well, and incubated at room temperature for 20 minutes. 2 mL of DMEM/F12 medium (containing glutamine, sodium pyruvate, HEPES, and fetal bovine serum) was added to Tube A. After mixing, 4 mL of mixture from Tube A was transferred to the prepared 10 cm dish (total volume 10 mL). The cells were cultured for 20-24 hours at 37° C. in 5% CO2.
The next day, the transfected cells were digested with trypsin digestion solution, and appropriate DMEM/F12 medium (containing glutamine, sodium pyruvate, HEPES, penicillin/streptomycin, fetal bovine serum) was added. The cells were seeded into Matrigel coated 384-well plates with a cell density of 6.67×10^6 cells/mL, 30 μL/well. The 384-well plates were cultured at 37° C. in 5% CO2.
On the third day, 10 μL/well of FLIPR dye (diluted in HEPES solution containing Pluronic and Probenecid) was added to the 384-well cell plate. And the plate was incubated for 40 minutes at 37° C. in 5% CO2. Diluted compounds were added to the cell plate and calcium signals were measured using a FLIPR plate reader.
Data were analyzed using XL-fit software to obtain EC50 values for each compound.

| Compound | EC50 [nM] |
| --- | --- |
| C[C@H](NC(=O)CNC(=O)c1cccc(Cl)c1)c1cccc(F)c1F [NRB180] | 0.1 to 100 |
| C[C@H](NC(=O)CNC(=O)c1cccc(Cl)c1)c1cc(F)ccc1F [NRB178] | 0.1 to 100 |
| C[C@H](NC(=O)CNC(=O)c1cccc(F)c1)c1ccccc1F [NRB153] | 0.1 to 100 |
| C[C@H](NC(=O)CNC(=O)c1cc(F)ccn1)c1ccccc1F [NRB156] | 100 to 1000 |
| C[C@H](NC(=O)CNC(=O)c1cc(F)cc(C(F)(F)F)n1)c1c(F)cccc1F [NRB214] | 100 to 1000 |
| COc1cc(F)nc(C(=O)NCC(=O)N[C@@H](C)c2ccccc2F)c1 [NRB211] | 0.1 to 100 |
| C[C@H](NC(=O)CNC(=O)c1cc(Cl)cc(Cl)c1)c1c(F)cccc1F [NRB216] | 0.1 to 100 |
| C[C@H](NC(=O)CNC(=O)c1cccc(F)c1)c1c(F)cccc1F [NRB154] | 100 to 1000 |

Continued, values first:

| EC50 [nM] | Compound |
| --- | --- |
| 0.1 to 100 | C[C@H](NC(=O)CNC(=O)c1cc(Cl)cc(F)n1)c1c(F)cc(F)cc1F [NRB225] |
| 100 to 1000 | C[C@H](NC(=O)CNC(=O)c1cc(Cl)cc(C(F)(F)F)n1)c1c(F)cccc1F [NRB222] |
| 0.1 to 100 | C[C@H](NC(=O)CNC(=O)c1cc(F)cc(F)c1)c1c(F)cccc1F [NRB202] |
| 100 to 1000 | COc1cc(Cl)cc(C(=O)NCC(=O)N[C@@H](C)c2c(F)cccc2F)n1 [NRB221] |
| 100 to 1000 | C[C@H](NC(=O)CNC(=O)c1cc(Cl)cc(C(F)(F)F)n1)c1c(F)cc(F)cc1F [NRB227] |
| 0.1 to 100 | COc1cc(F)nc(C(=O)NCC(=O)N[C@@H](C)c2c(F)cccc2F)c1 [NRB215] |
